Literature values as cited in patent US12472158B2, “Methods of treating trigeminal nerve pain” (Vanderbilt University, priority 2019, dated 2025).

Tests used:
[1] = tested on: contraction of the nictitating membrane in cats; settings: i.v., dose giving 50% reduction of the nictitating membrane contraction
[2] = tested on: goat model; settings: for duration of antinociceptive effect: intrathecal
[3] = tested on: rat model
[4] = target: T1, α-2A adrenergic receptor (Homo sapiens, UniProt P08913); settings: α-2A vs α-2B and α-2C
T1 sequence (P08913 1-465): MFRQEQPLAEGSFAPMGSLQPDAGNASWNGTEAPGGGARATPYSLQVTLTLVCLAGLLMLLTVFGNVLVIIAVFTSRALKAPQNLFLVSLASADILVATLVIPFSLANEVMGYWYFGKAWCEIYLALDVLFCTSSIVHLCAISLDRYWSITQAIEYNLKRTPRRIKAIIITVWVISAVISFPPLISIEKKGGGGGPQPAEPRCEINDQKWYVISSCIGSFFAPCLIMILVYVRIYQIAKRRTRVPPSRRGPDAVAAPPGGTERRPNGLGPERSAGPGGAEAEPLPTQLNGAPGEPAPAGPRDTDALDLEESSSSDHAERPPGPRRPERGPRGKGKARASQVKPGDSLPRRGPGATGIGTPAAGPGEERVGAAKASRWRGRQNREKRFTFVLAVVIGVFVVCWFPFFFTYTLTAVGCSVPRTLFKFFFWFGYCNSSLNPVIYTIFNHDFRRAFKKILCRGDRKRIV

[5] = among the alpha-2 agonists
[6] = tested on: subarachnoid space; settings: 75 mcg in 15 μl saline, intrathecal route
[7] = lidocaine alone (active control group); medical literature and expert opinion

Cc1cccc(C)c1CC(=O)NC(=N)N [2,6-dimethylphenyl-acetyl-guanidine]
Reduction of the neck sympathicus stimulus ED50 [1]: 1.0 mg/kg

Clc1cccc(Cl)c1N=C1NCCN1 [clonidine]
duration of antinociceptive effect [2]: 5 h
time for anti-nociceptive effect to decline to baseline ([3]; rat model, injection 50 mcg): ≤ 4 h

Cl.N=C(N)NC(=O)Cc1c(Cl)cccc1Cl [guanfacine, N-amidino-2-(2,6-dichlorophenyl) acetamide]
Reduction of the neck sympathicus stimulus ED50 [1]: 0.3 mg/kg
affinity for α-2A adrenergic receptor compared to α-2B and α-2C adrenergic receptor [4]: 15- to 20 fold
elimination half-life (in vivo): ~17 h
oral bioavailability (oral): around 80%
renal excretion (share of elimination): ~50%
elimination from spinal cord tissue ([2]; compared with clonidine): slower elimination
duration of antinociceptive effect [2]: 8 h
rate of elimination from spinal cord tissue ([3]; compared to clonidine): lower rate of elimination
duration of anti-nociceptive effect ([3]; rat model, intrathecal, both 25 mcg and 50 mcg): greater than 18 h
rate of sedation [5]: lowest rate of sedation
toxicity in the subarachnoid space [6]: nontoxic

CCN(CC)CC(=O)Nc1c(C)cccc1C [lidocaine]
mean duration of pain relief [7]: approximately 140 minutes
